From patent US20240261465A1, “METHOD OF STOPPING BLEEDING USING NANOFIBROUS PEPTIDE HYDROGELS AS HEMOSTASIS AGENT” (KING ABDULLAH UNIVERSITY OF SCIENCE AND TECHNOLOGY, priority 2021, published 2024)
Non-standard residues stand in square brackets, D forms with d. No end group written: not given here. Cha = N[C@@H](CC1CCCCC1)C(=O)O

What was measured:
[1] = test system: Human platelets; assay: Surface coating and platelet adhesion; type: cell-based; settings: fluorescence microscopy images, FIG. 23; for platelet adhesion: coated surface
Text: In one embodiment, the self-assembling peptides induce platelet adhenrance. In a preferred embodiment, the self-assembling peptides induce more platelet adhenrance than collagen. One important factor for accelerating blood coagulation could be by promoting the recruitment and adherence of platelets to the site of injury as these processes play a critical role in primary hemostasis (O'Shaughnessy, D. and R. Gill, 19 Cardiothoracic surgery. Practical Hemostasis and Thrombosis, 2009: p. 194). Therefore, platelet adherence induced by peptide hydrogels, type I collagen (positive control), and bovine serum albumin (BSA) (negative comtrol) was tested and compared. […] The scale bar in FIG. 23 is 100 μm. […] The level of platelet adhesion induced by peptide hydrogels, type I collagen (positive control) was also quantified, as shown in FIG. 24. According to FIG. 24, the level of platelet adhesion induced by peptide hydrogels is even higher than that of collagen. […] Therefore, our peptides induced platelet adhesion, a process that may help trigger the coagulation system.
The procedure was done as described previously (Chen, C., et al., Hydrogelation of the short self-assembling peptide 13QGK regulated by transglutaminase and use for rapid hemostasis. ACS applied materials & interfaces, 2016. 8(28): p. 17833-17841). Briefly, for surface coating. 200 μL of 6 mM IVFK (SEQ ID NO. 1), 6 mM IVZK (SEQ ID NO. 2), 0.5% (w/v), BSA (PBS, pH 7.4), and 0.01 mg/mL type I collagen (PBS, pH 7.4) solutions were added to the wells of a 96-well black plate and incubated at 4° C. for 24 h. The wells were washed three times with PBS after removing these solutions. Human platelets were isolated from whole human blood containing anticoagulant sodium citrate (0.38%, w/v) as described previously(Chen, C., et al., Hydrogelation of the short self-assembling peptide 13QGK regulated by transglutaminase and use for rapid hemostasis. ACS applied materials & interfaces, 2016. 8(28): p. 17833-17841). The blood collection was approved by IBEC (18IBEC143). Briefly, platelet-rich plasma (PRP) was collected by centrifugation at 200×g for 20 min at 25° C. Then, PRP was diluted at a 1:1 ratio with PBS and subjected to second centrifugation at 800×g for 12 min at 25° C. The isolated platelets were washed three times with Tyrode's buffer (Hepes 20 mM, glucose […], BSA 1 mg/mL, NaH2PO4 3.3 mM, NaCl 137 mM, KCl 2.7 mM), followed by staining with calcein-AM (1 μg/mL) for 30 min in the dark at room temperature to stained platelets. After washing twice with PBS, the stained platelets were added into the coated wells and incubated for 1 h at 37° C. Subsequently, the supernatants were removed, and the unbound platelets were discarded by washing three times with PBS. The fluorescence of adherent platelets was measured by fluorescence microscopy.

[2] = Determination of gelation time by coagulation meter; type: physicochemical; settings: for gelation time, effect of temperature: 37° C. versus 25° C., FIGS. 1 and 2; for onset of gelation: different temperatures, different concentrations, FIGS. 3 and 4
Procedure: In one embodiment, the nanofiber formation of the self-assembling peptides is affected by concentration of the peptide solution (Luo, Z., S. Wang, and S. Zhang, Fabrication of self-assembling D-form peptide nanofiber scaffold d-EAK16 for rapid hemostasis. Biomaterials, 2011. 32(8): p. 2013-2020). The gelation time of different peptides at various concentrations was recorded using a coagulation meter. FIGS. 1 and 2 illustrate the gelation time of two peptides with different concentrations at two different temperatures (25° C., 37° C.). As shown in both FIGS. 1 and 2, as the concentration of peptide increases, the required time for gelation decreases.
In one embodiment, the peptide gelation is impacted by temperature. […] This effect can be explained by the increasing of kinetic energy which is helps in bond formation within molecules enabling the peptide solution to form gels faster at 37° C. than at 25° C.
In one embodiment, the gelation time is impacted by temperature.
In this study, onset of gelation was assessed using coagulation meter MC 10 PLUS (MERLIN® Medical, Germany). The peptide solution at different concentrations was used and checked under various conditions. For the coagulation experiment, 300 μl of peptide solution was added into a tube and placed in the preheated position for 50 seconds before adding 30 μl of PBS. The time at which the gel formed was then recorded. The temperature was chosen in advance and all solutions were incubated at the desired temperature before conducting the measurements.

[3] = test system: plasma; assay: Blood coagulation test (aPTT), normal plasma; settings: peptide solution mixed with plasma, 37° C., control without peptides around 40 seconds
Procedure: In one embodiment, an application of the peptide-based hemostatic material in the present disclosure to the bleeding wound produces a coagulation time of less than 40 seconds. The coagulation time of normal plasma (without self-assembling peptides) and plasma with IVZK (SEQ ID NO. 2) or IVFK (SEQ ID NO. 1) hydrogels as initiators for clot formation was compared using a partial thromboplastin time (aPTT) test. The hemostatic properties of the peptides were evaluated by measuring the coagulation time after mixing the peptide solution with plasma. […] The coagulation time of the control (without self-assembling peptides) was around 40 seconds, which is within the normal range.
The aPTT test was performed in a coagulation meter MC 10 PLUS (MERLIN® Medical, Germany). First, 100 μL of plasma was incubated at 37° C., followed by adding 100 μL of a-PTT reagent. Then, the plasma-reagent mixture was incubated at 37° C. for 5 minutes (activation time). Finally, 100 μL of pre-warmed […] calcium chloride was added and time clot formation was recorded. In experimental group, 150 μL of plasma was pre-warmed and then 150 μL of peptide solution was added and the time was recorded. Each test was conducted at least three times.

Substance | platelet adhesion [1] | level of platelet adhesion relative to collagen (positive control) [1] | gelation time, effect of temperature [2] | onset of gelation [2] | coagulation (clotting) time [3]
IVFK: tetrameric self-assembling ultrashort peptide IVFK (SEQ ID NO. 1), forms nanofibrous hydrogel | considerable platelet adhesion | comparable to that on the surface of collagen | faster gelation at 37 °C | occurs faster with the increase of temperature | around 5 seconds
IVZK: tetrameric self-assembling ultrashort peptide IVZK (SEQ ID NO. 2), forms nanofibrous hydrogel (IV[Cha]K) | considerable platelet adhesion | comparable to that on the surface of collagen | faster gelation at 37 °C | occurs faster with the increase of temperature | around 5 seconds
bovine serum albumin [BSA, reference compound] | little platelet adhesion | – | – | – | –
